Test results taken from patent US9260467B2, “Sialic acid dimers” (priority 2011, dated 2016).

target: T1, Siglec-2 (CD22) (Homo sapiens, UniProt P20273); experiment: new affinity assay: displacement of biotinylated compound 155 from sialidase-treated Daudi cells, FACS with streptavidin-PE; type: binding; design: endogenous in cells; host or cells: Daudi (human B-cell lymphoma line); conditions: Table II; rIP values set relative to compound 38; Daudi cells, displacement of compound 155
T1 sequence (P20273 20-847): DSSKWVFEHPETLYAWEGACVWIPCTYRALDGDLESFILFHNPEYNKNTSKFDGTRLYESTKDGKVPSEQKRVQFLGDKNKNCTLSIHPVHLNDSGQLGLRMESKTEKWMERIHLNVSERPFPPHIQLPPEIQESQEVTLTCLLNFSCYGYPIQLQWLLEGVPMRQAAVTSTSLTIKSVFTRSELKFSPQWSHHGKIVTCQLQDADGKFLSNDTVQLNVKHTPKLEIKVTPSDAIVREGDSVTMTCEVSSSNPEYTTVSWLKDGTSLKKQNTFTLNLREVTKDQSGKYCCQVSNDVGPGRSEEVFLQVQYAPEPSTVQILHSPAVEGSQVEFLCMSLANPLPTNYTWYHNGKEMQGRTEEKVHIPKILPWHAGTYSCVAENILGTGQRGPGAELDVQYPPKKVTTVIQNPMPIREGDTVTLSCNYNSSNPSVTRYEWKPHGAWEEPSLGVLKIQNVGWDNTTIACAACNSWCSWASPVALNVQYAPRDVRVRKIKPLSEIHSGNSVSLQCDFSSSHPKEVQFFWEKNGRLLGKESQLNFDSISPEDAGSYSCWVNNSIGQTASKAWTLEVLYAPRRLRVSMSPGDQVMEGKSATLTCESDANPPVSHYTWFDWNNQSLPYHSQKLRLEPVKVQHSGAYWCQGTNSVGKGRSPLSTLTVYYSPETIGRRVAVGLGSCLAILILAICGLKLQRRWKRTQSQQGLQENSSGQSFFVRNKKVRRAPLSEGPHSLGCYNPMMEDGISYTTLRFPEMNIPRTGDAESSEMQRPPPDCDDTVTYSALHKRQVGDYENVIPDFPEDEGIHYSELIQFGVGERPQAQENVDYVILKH
Experimental: To determine the affinity of the compound of the formula (I), approximately 5×10^6 to 2×10^8 cells of the human B-cell lymphoma line “Daudi” were incubated with sialidase (A. ureafaciens) at 37° C. for 1 h (final concentration 0.1 unit/ml). […] Batches of 1-2×10^6 cells were transferred to sample vessels, and incubated on ice for 15 min with serial concentrations (10-fold dilutions, 1 mM to 1×10^−7 mM) of the substance under measurement (inhibitor). The reaction volume was 50 μl. Then 50 microliters of compound 155 (4-micromolar) were added, and incubation took place for 20 min Washing with FACS buffer (PBS, 0.1 BSA, 0.01% sodium azide) was followed by incubation with streptavidin-PE in the dark for 15 min, followed by washing and measurement of the bound amount of […] via the streptavidin-PE in the FACS. For the determination of 0% displacement of the compound 155, cells without inhibitor were measured. For the determination of 100% displacement, cells were measured without compound 155 and without inhibitor. For each assay, four substances and one reference were measured. The IC50 values determined in each assay were subsequently converted into values of rIP (relative Inhibitory Potency). […]

| Compound | rIP |
| --- | --- |
| CC(=O)N[C@H]1[C@H]([C@H](O)[C@H](O)CNC(=O)c2ccc(C3CCCCC3)cc2)O[C@@](OCCCSCCNC(=O)c2ccc(C(=O)NCCSCCCO[C@]3(C(=O)[O-])C[C@H](O)[C@@H](NC(C)=O)[C@H]([C@H](O)[C@H](O)CNC(=O)c4ccc(C5CCCCC5)cc4)O3)cc2)(C(=O)[O-])C[C@@H]1O.[Na+].[Na+] [Compound 57] | 22 |
| CC(=O)N[C@H]1[C@H]([C@H](O)[C@H](O)CNC(=O)c2ccc(-c3ccccc3)cc2)O[C@@](OCc2cn(CCNC(=O)c3ccc(C(=O)NCCn4cc(CO[C@]5(C(=O)[O-])C[C@H](O)[C@@H](NC(C)=O)[C@H]([C@H](O)[C@H](O)CNC(=O)c6ccc(-c7ccccc7)cc6)O5)nn4)cc3)nn2)(C(=O)[O-])C[C@@H]1O.[Na+].[Na+] [Compound 125] | 8 |
| CC(=O)N[C@H]1[C@H]([C@H](O)[C@H](O)CNC(=O)Cc2ccc3ccccc3c2)O[C@@](OCCCSCCNC(=O)c2ccc(-c3ccc(C(=O)NCCSCCCO[C@]4(C(=O)[O-])C[C@H](O)[C@@H](NC(C)=O)[C@H]([C@H](O)[C@H](O)CNC(=O)Cc5ccc6ccccc6c5)O4)cc3)cc2)(C(=O)[O-])C[C@@H]1O.[Na+].[Na+] [Compound 127] | 74 |
| CC(=O)N[C@H]1[C@H]([C@H](O)[C@H](O)CNC(=O)c2ccc(-c3ccccc3)cc2)O[C@@](OCCCSCCNC(=O)C2CCC(C(=O)NCCSCCCO[C@]3(C(=O)[O-])C[C@H](O)[C@@H](NC(C)=O)[C@H]([C@H](O)[C@H](O)CNC(=O)c4ccc(-c5ccccc5)cc4)O3)CC2)(C(=O)[O-])C[C@@H]1O.[Na+].[Na+] (stereo partly drawn) [Compound 31] | 643 |
| CC(=O)N[C@H]1[C@H]([C@H](O)[C@H](O)CNC(=O)c2ccc(-c3ccccc3)cc2)O[C@@](OCCCSCCNc2c(NCCSCCCO[C@]3(C(=O)[O-])C[C@H](O)[C@@H](NC(C)=O)[C@H]([C@H](O)[C@H](O)CNC(=O)c4ccc(-c5ccccc5)cc4)O3)c(=O)c2=O)(C(=O)[O-])C[C@@H]1O.[Na+].[Na+] [Compound 51] | 299 |
| CC(=O)N[C@H]1[C@H]([C@H](O)[C@H](O)CNC(=O)c2ccc(-c3cccs3)s2)O[C@@](OCCCSCCNC(=O)c2ccc(C(=O)NCCSCCCO[C@]3(C(=O)[O-])C[C@H](O)[C@@H](NC(C)=O)[C@H]([C@H](O)[C@H](O)CNC(=O)c4ccc(-c5cccs5)s4)O3)cc2)(C(=O)[O-])C[C@@H]1O.[Na+].[Na+] [Compound 62] | 203 |
| CC(=O)N[C@H]1[C@H]([C@H](O)[C@H](O)CNC(=O)c2ccc(Oc3ccccc3)cc2)O[C@@](OCCCSCCNC(=O)c2ccc(C(=O)NCCSCCCO[C@]3(C(=O)[O-])C[C@H](O)[C@@H](NC(C)=O)[C@H]([C@H](O)[C@H](O)CNC(=O)c4ccc(Oc5ccccc5)cc4)O3)cc2)(C(=O)[O-])C[C@@H]1O.[Na+].[Na+] [Compound 63] | 20 |
| CC(=O)N[C@H]1[C@H]([C@H](O)[C@H](O)CNC(=O)c2ccc(-c3ccccc3)cc2)O[C@@](OCCCSCCNC(=O)c2ccc(C(=O)NCCSCCCO[C@]3(C(=O)[O-])C[C@H](O)[C@@H](NC(C)=O)[C@H]([C@H](O)[C@H](O)CNC(=O)c4ccc(-c5ccccc5)cc4)O3)nc2)(C(=O)[O-])C[C@@H]1O.[Na+].[Na+] [Compound 27] | 2990 |
| CC(=O)N[C@H]1[C@H]([C@H](O)[C@H](O)CNC(=O)c2ccc(-c3ccccc3Cl)cc2)O[C@@](OCCCSCCNC(=O)c2ccc(C(=O)NCCSCCCO[C@]3(C(=O)[O-])C[C@H](O)[C@@H](NC(C)=O)[C@H]([C@H](O)[C@H](O)CNC(=O)c4ccc(-c5ccccc5Cl)cc4)O3)cc2)(C(=O)[O-])C[C@@H]1O.[Na+].[Na+] [Compound 75] | 3210 |
| CC(=O)N[C@H]1[C@H]([C@H](O)[C@H](O)CNC(=O)c2ccc(-c3ccccc3)cc2)O[C@@](OCCCSCCC(=O)NCc2ccc(CNC(=O)CCSCCCO[C@]3(C(=O)[O-])C[C@H](O)[C@@H](NC(C)=O)[C@H]([C@H](O)[C@H](O)CNC(=O)c4ccc(-c5ccccc5)cc4)O3)cc2)(C(=O)[O-])C[C@@H]1O.[Na+].[Na+] [Compound 44] | 177 |
| CC(=O)N[C@H]1[C@H]([C@H](O)[C@H](O)CNC(=O)c2ccc(-c3ccccc3)cc2)O[C@@](OCCCSCCC(=O)NCCCCCCNC(=O)CCSCCCO[C@]2(C(=O)[O-])C[C@H](O)[C@@H](NC(C)=O)[C@H]([C@H](O)[C@H](O)CNC(=O)c3ccc(-c4ccccc4)cc3)O2)(C(=O)[O-])C[C@@H]1O.[Na+].[Na+] [Compound 43] | 15 |
| CC(=O)N[C@H]1[C@H]([C@H](O)[C@H](O)CNC(=O)c2ccc(-c3ccccc3)cc2)O[C@@](OCCCSCCNC(=O)c2ccc(C(=O)NCCSCCCO[C@]3(C(=O)[O-])C[C@H](O)[C@@H](NC(C)=O)[C@H]([C@H](O)[C@H](O)CNC(=O)c4ccc(-c5ccccc5)cc4)O3)cc2)(C(=O)[O-])C[C@@H]1OC(=O)c1ccccc1.[Na+].[Na+] [Compound 147] | 32069 |
| CC(=O)N[C@H]1[C@H]([C@H](O)[C@H](O)CNC(=O)c2ccc(-c3ccco3)cc2)O[C@@](OCCCSCCNC(=O)c2ccc(C(=O)NCCSCCCO[C@]3(C(=O)[O-])C[C@H](O)[C@@H](NC(C)=O)[C@H]([C@H](O)[C@H](O)CNC(=O)c4ccc(-c5ccco5)cc4)O3)cc2)(C(=O)[O-])C[C@@H]1O.[Na+].[Na+] [Compound 82] | 752 |
| CC(=O)N[C@H]1[C@H]([C@H](O)[C@H](O)CNC(=O)c2ccc(-c3c4ccc(=O)cc-4oc4cc(O)ccc34)c(C(=O)[O-])c2)O[C@@](OCCCSCCNC(=O)c2ccc(-c3ccc(C(=O)NCCSCCCO[C@]4(C(=O)[O-])C[C@H](O)[C@@H](NC(C)=O)[C@H]([C@H](O)[C@H](O)CNC(=O)c5ccc(-c6c7ccc(=O)cc-7oc7cc(O)ccc67)c(C(=O)[O-])c5)O4)cc3)cc2)(C(=O)[O-])C[C@@H]1O.[Na+].[Na+].[Na+].[Na+] [Compound 131] | 4 |
| CC(=O)N[C@H]1[C@H]([C@H](O)[C@H](O)CNC(=O)c2ccc(-c3ccccc3)cc2)O[C@@](OCCCSCCC(=O)NCCNC(=O)CCSCCCO[C@]2(C(=O)[O-])C[C@H](O)[C@@H](NC(C)=O)[C@H]([C@H](O)[C@H](O)CNC(=O)c3ccc(-c4ccccc4)cc3)O2)(C(=O)[O-])C[C@@H]1O.[Na+].[Na+] [Compound 46] | 290 |
| CC(=O)N[C@H]1[C@H]([C@H](O)[C@H](O)CNC(=O)c2ccc(-c3ccccc3)cc2)O[C@@](OCCCSCCNC(=O)c2ccc(C(=O)NCCSCCCO[C@]3(C(=O)[O-])C[C@H](O)[C@@H](NC(C)=O)[C@H]([C@H](O)[C@H](O)CNC(=O)c4ccc(-c5ccccc5)cc4)O3)s2)(C(=O)[O-])C[C@@H]1O.[Na+].[Na+] [Compound 29] | 2061 |
| CC(=O)Nc1ccc(C(=O)NC[C@@H](O)[C@@H](O)[C@@H]2O[C@@](OCCCSCCNC(=O)c3ccc(C(=O)NCCSCCCO[C@]4(C(=O)[O-])C[C@H](O)[C@@H](NC(C)=O)[C@H]([C@H](O)[C@H](O)CNC(=O)c5ccc(NC(C)=O)cc5)O4)cc3)(C(=O)[O-])C[C@H](O)[C@H]2NC(C)=O)cc1.[Na+].[Na+] [Compound 73] | 13 |
| CC(=O)N[C@H]1[C@H]([C@H](O)[C@H](O)CNC(=O)c2ccc(-c3ccccc3)cc2)O[C@@](OCCCSCCC(=O)Nc2ccc(NC(=O)CCSCCCO[C@]3(C(=O)[O-])C[C@H](O)[C@@H](NC(C)=O)[C@H]([C@H](O)[C@H](O)CNC(=O)c4ccc(-c5ccccc5)cc4)O3)cc2)(C(=O)[O-])C[C@@H]1O.[Na+].[Na+] [Compound 39] | 10760 |
